Patent US11066363B2, “Substituted 6,11-dihydro-5H-benzo[B]carbazoles as inhibitors of ALK and SRPK” (Dana-Farber Cancer Institute, Inc., priority 2015, dated 2021)

Columns and labels:
[1] = tested on: EML4-ALK wt transformed Ba/F3 cells; experiment: Ba/F3 single point inhibition assay (MTS); assay type: cell-based; conditions: single dose 1 μM, 72 hours
Excerpt: (§1) The MTS assay is a colorimetric method for determining the number of viable cells that is based on the bioreduction of MTS by cells to a formazan product that is soluble in cell culture medium and can be detected spectrophotometrically. […] All experimental points were set up in six wells and all experiments were repeated at least three times. […] The curves were fitted using a non-linear regression model with a sigmoidal dose response.

[2] = tested on: EML4-ALK^G1202R transformed Ba/F3 cells; experiment: Ba/F3 single point inhibition assay (MTS); assay type: cell-based; conditions: single dose 1 μM, 72 hours
Excerpt: as §1

SRPK1 = SRPK1 (Homo sapiens (Human), UniProt Q96SB4); experiment: SRPK1 inhibitory activity; assay type: biochemical
SRPK2 = SRPK2 (Homo sapiens (Human), UniProt P78362); experiment: SRPK2 inhibitory activity; assay type: biochemical
Sequence of SRPK2 (P78362 whole entry, species assumed): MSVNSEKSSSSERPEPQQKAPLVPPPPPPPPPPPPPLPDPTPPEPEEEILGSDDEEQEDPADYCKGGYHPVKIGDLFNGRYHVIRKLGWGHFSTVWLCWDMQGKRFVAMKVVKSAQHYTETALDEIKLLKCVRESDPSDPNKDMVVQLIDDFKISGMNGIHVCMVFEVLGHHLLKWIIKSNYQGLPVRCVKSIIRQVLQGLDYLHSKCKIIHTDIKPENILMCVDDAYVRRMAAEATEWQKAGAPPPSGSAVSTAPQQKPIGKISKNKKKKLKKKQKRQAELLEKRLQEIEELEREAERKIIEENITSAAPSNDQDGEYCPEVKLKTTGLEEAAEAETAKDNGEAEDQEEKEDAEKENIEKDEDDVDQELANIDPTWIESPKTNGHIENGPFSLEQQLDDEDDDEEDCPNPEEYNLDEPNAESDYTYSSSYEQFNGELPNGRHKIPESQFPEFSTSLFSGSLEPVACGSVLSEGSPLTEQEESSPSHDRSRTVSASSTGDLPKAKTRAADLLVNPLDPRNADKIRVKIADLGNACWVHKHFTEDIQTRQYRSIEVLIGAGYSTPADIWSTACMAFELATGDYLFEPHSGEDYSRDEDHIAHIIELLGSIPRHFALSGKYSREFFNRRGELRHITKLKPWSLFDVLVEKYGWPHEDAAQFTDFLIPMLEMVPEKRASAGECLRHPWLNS

Sequence of SRPK1 (Q96SB4 whole entry): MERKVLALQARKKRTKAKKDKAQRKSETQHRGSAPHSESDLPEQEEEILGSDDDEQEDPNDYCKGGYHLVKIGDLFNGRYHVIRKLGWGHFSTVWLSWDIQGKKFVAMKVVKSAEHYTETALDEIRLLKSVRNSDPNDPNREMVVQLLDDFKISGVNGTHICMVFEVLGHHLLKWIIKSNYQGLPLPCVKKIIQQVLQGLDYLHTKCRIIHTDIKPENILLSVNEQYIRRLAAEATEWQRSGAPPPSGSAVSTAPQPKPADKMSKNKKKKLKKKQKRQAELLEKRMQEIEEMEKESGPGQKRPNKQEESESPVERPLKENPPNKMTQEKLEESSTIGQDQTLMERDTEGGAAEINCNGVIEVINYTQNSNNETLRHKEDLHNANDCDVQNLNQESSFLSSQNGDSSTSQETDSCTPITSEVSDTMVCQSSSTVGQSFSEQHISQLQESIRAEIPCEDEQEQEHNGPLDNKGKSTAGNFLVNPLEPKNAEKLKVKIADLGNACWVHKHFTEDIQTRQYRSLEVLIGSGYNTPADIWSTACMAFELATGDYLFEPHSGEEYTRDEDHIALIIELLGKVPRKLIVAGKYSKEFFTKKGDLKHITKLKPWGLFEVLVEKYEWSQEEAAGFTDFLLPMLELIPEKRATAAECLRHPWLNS

Structure (SMILES) | Percent viability of untreated control, wt [1] [%] | Percent viability of untreated control, G1202R [2] [%] | IC50 (SRPK1) [nM] | IC50 (SRPK2) [nM]
CCc1cc2c(cc1N1CCNCC1)C(C)(C)c1[nH]c3cc(C#N)ccc3c1C2=O [Compound 18, 9-ethyl-6,6-dimethyl-11-oxo-8-(piperazin-1-yl)-6,11-dihydro-5H-benzo[b]carbazole-3-carbonitrile] | 1 | 7 |  | 
CCc1cc2c(cc1-c1cccs1)C(C)(C)c1[nH]c3cc(C#N)ccc3c1C2=O [Compound 12, 9-ethyl-6,6-dimethyl-11-oxo-8-(thiophen-2-yl)-6,11-dihydro-5H-benzo[b]carbazole-3-carbonitrile] | 12 | 10 |  | 
CCc1cc2c(cc1C#N)C(C)(C)c1[nH]c3cc(C#N)ccc3c1C2=O [Compound 21, 9-ethyl-6,6-dimethyl-11-oxo-6,11-dihydro-5H-benzo[b]carbazole-3,8-dicarbonitrile] | 19 | 28 |  | 
CCc1cc2c(cc1C(=O)O)C(C)(C)c1[nH]c3cc(C#N)ccc3c1C2=O [Compound 24, 3-cyano-9-ethyl-6,6-dimethyl-11-oxo-6,11-dihydro-5H-benzo[b]carbazole-8-carboxylic acid] | 57 | 39 |  | 
CCc1cc2c(cc1-c1cncnc1)C(C)(C)c1[nH]c3cc(C#N)ccc3c1C2=O [Compound 16, 9-ethyl-6,6-dimethyl-11-oxo-8-(pyrimidin-5-yl)-6,11-dihydro-5H-benzo[b]carbazole-3-carbonitrile] | 3 | 4 | 2.53 | 12.5
CCc1cc2c(cc1-c1cnn(C(C)(C)C(=O)N(C)C)c1)C(C)(C)c1[nH]c3cc(C#N)ccc3c1C2=O [Compound 35, 2-(4-(3-cyano-9-ethyl-6,6-dimethyl-11-oxo-6,11-dihydro-5H-benzo[b]carbazol-8-yl)-1H-pyrazol-1-yl)-N,N,2-trimethylpropanamide] | 0 | 0 |  | 
CCc1cc2c(cc1-c1ccc(O)nc1)C(C)(C)c1[nH]c3cc(C#N)ccc3c1C2=O [Compound 26, 9-ethyl-8-(6-hydroxypyridin-3-yl)-6,6-dimethyl-11-oxo-6,11-dihydro-5H-benzo[b]carbazole-3-carbonitrile] | 4 | 12 |  | 
CCc1cc2c(cc1-c1cn[nH]c1)C(C)(C)c1[nH]c3cc(C#N)ccc3c1C2=O [Compound 8, 9-ethyl-6,6-dimethyl-11-oxo-8-(1H-pyrazol-4-yl)-6,11-dihydro-5H-benzo[b]carbazole-3-carbonitrile] | 0 | 1 |  | 
CCc1cc2c(cc1-c1ccncc1)C(C)(C)c1[nH]c3cc(C#N)ccc3c1C2=O [Compound 14] | 2 | 5 | 2.61 | 
CCc1cc2c(cc1-c1ccc(S(=O)(=O)F)cc1)C(C)(C)c1[nH]c3cc(C#N)ccc3c1C2=O [Compound 38, 4-(3-cyano-9-ethyl-6,6-dimethyl-11-oxo-6,11-dihydro-5H-benzo[b]carbazol-8-yl)benzenesulfonyl fluoride] |  |  | 41 | 
CCc1cc2c(cc1-c1cnn(CC(=O)NC)c1)C(C)(C)c1[nH]c3cc(C#N)ccc3c1C2=O [Compound 33, 2-(4-(3-cyano-9-ethyl-6,6-dimethyl-11-oxo-6,11-dihydro-5H-benzo[b]carbazol-8-yl)-1H-pyrazol-1-yl)-N-methylacetamide] | 0 | 0 |  | 
CCc1cc2c(cc1-c1ccoc1)C(C)(C)c1[nH]c3cc(C#N)ccc3c1C2=O [Compound 11, 9-ethyl-8-(furan-3-yl)-6,6-dimethyl-11-oxo-6,11-dihydro-5H-benzo[b]carbazole-3-carbonitrile] | 6 | 8 |  | 
CCc1cc2c(cc1/C=C/CN1CCOCC1)C(C)(C)c1[nH]c3cc(C#N)ccc3c1C2=O [Compound 25, (E)-9-ethyl-6,6-dimethyl-8-(3-morpholinoprop-1-en-1-yl)-11-oxo-6,11-dihydro-5H-benzo[b]carbazole-3-carbonitrile] | 93 | 103 |  | 
CCc1cc2c(cc1[C@@H](O)CO)C(C)(C)c1[nH]c3cc(C#N)ccc3c1C2=O [Compound 22, (R)-8-(1,2-dihydroxyethyl)-9-ethyl-6,6-dimethyl-11-oxo-6,11-dihydro-5H-benzo[b]carbazole-3-carbonitrile] | 4 | 39 |  | 
CCc1cc2c(cc1-c1ccc(N)nc1)C(C)(C)c1[nH]c3cc(C#N)ccc3c1C2=O [Compound 27, 8-(6-aminopyridin-3-yl)-9-ethyl-6,6-dimethyl-11-oxo-6,11-dihydro-5H-benzo[b]carbazole-3-carbonitrile] | 12 | 42 |  | 
CCc1cc2c(cc1[C@H](O)CO)C(C)(C)c1[nH]c3cc(C#N)ccc3c1C2=O [Compound 23, (S)-8-(1,2-dihydroxyethyl)-9-ethyl-6,6-dimethyl-11-oxo-6,11-dihydro-5H-benzo[b]carbazole-3-carbonitrile] | 4 |  |  | 
CCc1cc2c(cc1-c1cccnc1)C(C)(C)c1[nH]c3cc(C#N)ccc3c1C2=O [Compound 15, 9-ethyl-6,6-dimethyl-11-oxo-8-(pyridin-3-yl)-6,11-dihydro-5H-benzo[b]carbazole-3-carbonitrile] | 1 | 3 |  | 
CCc1cc2c(cc1N1CCOCC1)C(C)(C)c1[nH]c3cc(C#N)ccc3c1C2=O [Compound 20, 9-ethyl-6,6-dimethyl-8-morpholino-11-oxo-6,11-dihydro-5H-benzo[b]carbazole-3-carbonitrile] | 2 | 4 |  | 
CCc1cc2c(cc1-c1cc[nH]n1)C(C)(C)c1[nH]c3cc(C#N)ccc3c1C2=O [Compound 9, 9-ethyl-6,6-dimethyl-11-oxo-8-(1H-pyrazol-3-yl)-6,11-dihydro-5H-benzo[b]carbazole-3-carbonitrile] | 1 | 1 | 1.15 | 
CCc1cc2c(cc1N(C)CCN(C)C)C(C)(C)c1[nH]c3cc(C#N)ccc3c1C2=O [Compound 28, 8-((2 (dimethylamino)ethyl)(methyl)amino)-9-ethyl-6,6-dimethyl-11-oxo-6,11-dihydro-5H-benzo[b]carbazole-3-carbonitrile] | 2 | 7 |  | 
